# Measurements published in US20050032687A1, “Method and composition for the modulation of angiogenesis” (priority 2001, published 2005).
# “Also recorded” adds a separate entry of the source.
# How the values were obtained:
# [1] = test system: bovine aortic endothelial cells (BAEC); assay: Cell migration in modified Boyden chamber; assay type: cell-based; conditions: for cell migration: VEGF-stimulated BAEC (100 ng/ml, 18 hr) with eNOS inhibitor (L-NAME 1 mmol/L, L-NMMA 100 μmol/L); for cell migration (fluorescence), result in words: BAEC
# Protocol: Fluorescently labeled, BAEC were stimulated with VEGF (100ng/ml) for 18 hr and cell migration was assessed in a modified Boyden Chamber.
# BAEC were fluorescently labeled with calcein AM (Molecular Probes, Inc.) and 0.4×10^3 cells were loaded to the top of a pre-fitted membrane filter that fit a specially designed 96-well microplate. The microplate wells were loaded with serum-free media and VEGF (100 ng/ml) for 18 hr., and cells were allowed to migrate across the membrane. The plate was then analyzed using a fluorescent microplate reader.
# [2] = test system: bovine aortic endothelial cells (BAEC); assay: Cell-wounding migration assay; assay type: cell-based; conditions: VEGF 100 ng/ml, serum-free media, 18 hr
# Protocol: FIGS. 3A-D show G6PD and endothelial cell migration.
# We next examined the role of G6PD on VEGF-stimulated endothelial cell migration. In a cell-wounding migration assay, BAEC were grown to confluence on a P100 culture dish. Using a sterile scalpel, a vertical incision was made in the midline of the dish, and under microscopic guidance, BAEC were removed from one-half of the plate. BAEC were then incubated with VEGF (100 ng/ml) in serum-free media, and cell migration across the midline was observed after 18 hr and quantified by the average cell count in 5 high powered fields.
# [3] = test system: bovine aortic endothelial cells (BAEC); assay: Endothelial cell proliferation by [3H]-thymidine incorporation; assay type: cell-based
# Protocol: FIGS. 1A and 1B show G6PD and endothelial cell proliferation. BAEC were treated with DHEA to decrease G6PD activity and stimulated with VEGF (100 ng/ml) for 8 hr (1A). Cell proliferation is measured by [^3H]-Thymidine incorporation. G6PD expression was inhibited by trans(in)fection with an antisense oligonucleotide to G6PD mRNA (AS) or a scrambled control (SS) and proliferation was determined by [^3H]-Thymidine incorporation (1B). Results are expressed as counts per minute (cpm) and data presented as mean±SEM. *p<0.01 vs.−VEGF.**p<0.01 vs.−DHEA or −SS.
# (§1) To examine further the role of G6PD in VEGF-mediated cell proliferation, we next inhibited G6PD activity by exposing BAEC to dehydroepiandrosterone (DHEA) ([…]), a noncompetitive inhibitor of G6PD, for 24 hr.
# (§2) As a control, we used a phosphorothioate oligodeoxynucleotide with a scrambled sequence (SS).
# (§3) We have recently constructed an adenoviral vector incorporating murine G6PD cDNA (93% homologous to the rat cDNA).
# [4] = test system: bovine aortic endothelial cells (BAEC); assay: Cellular NADPH levels in BAEC; assay type: cell-based; conditions: for cellular NADPH levels: VEGF 100 ng/ml
# Source text: (§4) To investigate the role of G6PD in vascular endothelial cell proliferation, we initially sought to determine if growth factors involved in angiogenesis, such as vascular endothelial growth factor (VEGF), influenced G6PD activity.
# as §3
# [5] = test system: G6PD; assay: G6PD activity in BAEC; assay type: cell-based, bovine; conditions: for G6PD activity: VEGF 100 ng/ml
# Source text: as §4, §1, §2, §3
# [6] = test system: bovine aortic endothelial cells (BAEC); assay: Cell death by lactate dehydrogenase activity measured in the media; assay type: cell-based; conditions: DHEA-treated BAEC
# Source text: as §1
# [7] = test system: G6PD; assay: G6PD expression by Western analysis in BAEC; assay type: cell-based, bovine
# Source text: as §4, §2, §3
# [8] = test system: bovine aortic endothelial cells (BAEC); assay: Endothelial cell tube formation on Matrigel; assay type: cell-based; conditions: VEGF 100 ng/ml for 12 hr
# Protocol: FIGS. 5A and B show G6PD and Tube Formation. BAEC were transfected with an antisense oligodecocynucleotide to G6PD and mRNA (AS) or a scrambled control (SS) and plated on Matrigel. Cells were then stimulated with VEGF and tube formation was assessed visually (5A) and quantified using area analysis with background substration (5B). Results of area analysis are the average of 10 high-powered fields.
# FIGS. 6A and B show G6PD overexpression and tube formation. G6PD expression was increased via adenoviral-mediated gene transfer. BAEC were then placed on Matrigel and stimulated with VEGF ([…]).
# To examine the role of G6PD in endothelial cell tube formation in vitro, we plated BAEC on Matrigel and stimulated cells with VEGF (100ng/ml) for 12 hr. Results were quantified using NIH Image to determine area of tube formation. Under basal conditions, BAEC plated on Matrigel formed tubes and networks that were increased following exposure to VEGF.
# In order to confirm that G6PD importantly modulates tube formation in vitro, we next increased G6PD expression via adenoviral-mediated gene transfer and examined tube formation.
# [9] = test system: C3H wild-type (WT) and hemizygous male (HEMI) mice; assay: In vivo Matrigel plug migration assay; design: species or system mouse
# Protocol: To examine the effect of G6PD activity on angiogenesis in vivo, we performed an in vivo Matrigel migration assay in C3H wild-type (WT) and hemizygous male (HEMI) mice. Matrigel, derived from mouse basement membrane proteins, was implanted subcutaneously in the groin area to form a Matrigel “plug”. Each mouse was injected on one side with either Matrigel alone, or Matrigel supplemented with VEGF (100 ng/ml). In this manner, each animal could serve as its own control. Plugs were left in place for 14 days. Following this time, the animals were euthanized, plugs excised with surrounding tissue for orientation, and embedded and sectioned in paraffin. Sections were then stained with Hematoxylin & Eosin (H&E). Images were captured digitally and assessed for cell counts. For orientation purposes, a representative Matrigel plug from a WT mouse at 4× (right) and 20× (left) magnification is shown below (FIG. 9).
# These findings were quantified by counting cells in 10 randomly selected high-power (20×) fields per image in 3 successive images. […] These findings confirm that G6PD modulates angiogenesis in vivo.
# We next wanted to determine if we could “rescue” the G6PD-deficient phenotype using gene transfer to increase local G6PD expression. We treated Matrigel with an adenoviral vector encoding for G6PD implanted plugs in HEMI mice for 7 days in the presence or absence of VEGF (FIG. 13).
# [10] = DHEA-treated or AS transfection for 5 hours
compound,measurement,setting,value
CNC(=N)NCCC[C@H](N)C(=O)O [L-NMMA],cell migration,[1],21.6±7.3 units
"C[C@]12CC[C@H](O)CC1=CC[C@@H]1[C@@H]2CC[C@]2(C)C(=O)CC[C@@H]12 [DHEA, dehydroepiandrosterone]","cell migration across the midline, average cell count",[2],10±2 cells/hpf
same,[3H]-thymidine incorporation,[3]; basal conditions (DHEA 100 pmol/L for 24 hr; AS or SS transfected),"9,967±1,531 cpm"
same,[3H]-thymidine incorporation,[3]; following stimulation with VEGF 100 ng/ml for 8 hr,"8,902±1,451 cpm"
same,decrease in the level of cellular NADPH,[4]; [10],30%
same,reduction in G6PD activity,[5]; [10],60%
same,"cell migration (fluorescence), result in words","[1]; VEGF 100 ng/ml, 18 hr",abrogated; also recorded: VEGF did not significantly increase migration
same,cell death by lactate dehydrogenase activity in the media,[6],not the result of increased cell death
VEGF,"cell migration across the midline, average cell count",[2],28±6 cells/hpf
same,G6PD expression,[7],did not increase G6PD expression
same,cellular NADPH levels,[4]; 4 hr,0.5±0.04 mmoles/mg protein
same,cellular NADPH levels,[4]; 24 hr,0.4±0.08 mmoles/mg protein
same,tube formation / vessel area,[8],increased
same,G6PD activity,[5]; 24 hr,87±19 units/6 min/mg protein
same,G6PD activity,[5]; after 4 hr,182.7±37 units/6 min/mg protein
same,cell migration as fluorescence,"[1]; BAEC with normal G6PD activity, VEGF 100 ng/ml, 18 hr",55.3±6.6 units
same,"cell migration (fluorescence), result in words","[1]; VEGF 100 ng/ml, 18 hr",significant increase in fluorescence
same,cell migration into the Matrigel plug,"[9]; HEMI mice, 7 days",not increased significantly
same,cell migration into the Matrigel plug,"[9]; HEMI mice, 14 days, Matrigel with VEGF 100 ng/ml",did not significantly improve this response
same,cell migration into the Matrigel plug,"[9]; WT mice, 14 days, Matrigel with VEGF 100 ng/ml",increased the number of cells migrating into the Matrigel plug
COC(=O)[C@@H](N)CCCNC(=N)N[N+](=O)[O-] [L-NAME],cell migration,[1],23.6±17 units
